Laboratory results: patent US11426402B2, “IRE1 activating compounds for use in therapy” (The Scripps Research Institute, priority 2019, dated 2022)

Legend:
[1] = system: Diet-Induced Obese (DIO) mice; assay: Glucose tolerance, serum glucose and insulin in DIO mice; assay type: in vivo, mouse; details: 4 weeks of dosing
Description: (§1) FIGS. 8A-8E. Oral glucose tolerance test in DIO mice treated with either Vehicle or 474 for 3 weeks (n=8) (FIG. 8A). Serum glucose and insulin levels post 4 weeks of dosing with 474 or vehicle (FIG. 8B). Glucose stimulated insulin secretion in islets isolated from 474 or vehicle treated mice. (FIG. 8C). Hepatic triglyceride content (FIG. 8D) and gene expression profiles of gluconeogenic genes (FIG. 8E) at 6 weeks post dosing.
(§2) To test the efficacy of pharmacologic IRE1 activation in mitigating T2D, we chronically administered 474 by once-daily IP injections at 50 mg/kg for a period of 6 weeks to Diet-Induced Obese (DIO) mice, a model of T2D.
(§3) This effect can be rationalized, at least in part, by enhanced pancreatic f-cell function in 474-treated […], as shown by our studies in isolated pancreatic islets from vehicle- and 474-treated mice. […] Given the well-documented link between IRE1 and hepatic metabolism in T2D^55, we also examined markers of liver function after 474 treatment. We found reduced liver triglyceride accumulation in 474-treated mice relative to controls (FIG. 80).

liver = assay: Hepatic triglyceride content and gluconeogenic gene expression in DIO mice; assay type: in vivo, mouse; details: 6 weeks post dosing
Description: as §1, §3

DNAJB9 = DNAJB9 expression in SHSY5Y cells overexpressing APP SW; assay type: cell-based
ATF6 target genes = assay: Liver RNA sequencing of DIO mice, ATF6 targets; assay type: in vivo, mouse; details: once-daily IP 50 mg/kg, 6 weeks
Procedure: FIGS. 7A-7D. RT-PCR of Xbp1s and the IRE1/XBP1s target gene Erdj4 from adipose tissue post single IP dose of 474 (FIG. 7A). Liver RNAseq profiles of ATF6, IRE1 and PERK target genes expressed as log 2 fold change of chronic 474 treatment compared to vehicle (FIG. 7B). Body weight (FIG. 7C) and food intake (FIG. 70) over 6 weeks of dosing.
as §2

APP = APP immunoblots of lysates and conditioned media of CHO 7PA2 cells; assay type: cell-based; details: CHO 7PA2, 10 μM
Procedure: FIGS. 5A-5D. […] Cells were treated for 18 hours, media was then replaced and conditioned in the presence of treatments for 24 hours before harvesting for ELISA assay. Error bars represent SEM for n=3 replicates. Statistics calculated from one-tailed Student's t-test. *p<0.05, **p<0.01, ***p<0.001 (FIG. 5A). Quantification of media and lysate immunoblots from 474 treatment (10 μM) of APP. Error bars represent Standard Deviation for n=3 replicates. Statistics calculated from one-tailed Student's t-test. *p<0.05, **p<0.01 ***p<0.001 (FIG. 5B). Plot showing fraction of total remaining APP at each time point after S35 metabolic labeling of newly synthesized protein, accounting for the sum of APP in lysate and media. Error bars represent Standard Deviation for n=3 replicates. Statistics calculated from one-tailed Student's t-test. *p<0.05, **p<0.01, ***p<0.001 (FIG. 5C). Plot showing fraction of secreted APP collected at 2 hours after metabolic labeling. Error bars represent Standard Deviation for n=3 replicates. Statistics calculated from one-tailed Student's t-test. *p<0.05, **p<0.01, ***p<0.001 (FIG. 5D). […]

For `Cc1ccc(OCCN(C)C(=O)Cn2cc(NC(=O)CCOc3ccccc3)cn2)cc1` [Compound 474], the basal insulin levels [1] was “more prominent decrease”, the fasting glucose [1] was “significant reduction” and the “expression of genes associated with glucose metabolism in liver” value (liver) was “reductions”. For the same molecule, the liver triglyceride accumulation (liver; relative to controls) was “reduced”, the DNAJB9 expression (DNAJB9) was “further increased” and the “ATF6 transcriptional response in liver” value (ATF6 target genes) was “modest induction”. For the same molecule, the “APP levels in lysates and conditioned media” value (APP) was “reduced APP levels in both lysates and conditioned media”.
